{"source": "paper PMC7031696", "about": "(Cell chemical biology, 2019)", "tested_on": "3D7-MR4 trophozoite parasite-infected RBCs", "experiment": "Metabolomic profiling (hydrophilic metabolite changes, UHPLC-MS)", "format": "cell-based, Plasmodium falciparum", "data": [{"compound": "CC(C)(C)NCc1cc(Nc2ccnc3cc(Cl)ccc23)c2c(c1O)CCCC2", "note": "[Naphtoquine, Naphthoquine, reference compound]", "values": [{"measurement": "changes within the set of metabolites detected (low fold change group)", "setting": "10 × IC50^72h, 2.5 hr, trophozoites", "value": "did not induce major changes"}, {"measurement": "Log2(fold changes) 1_3-Bisphosphoglyceric acid", "setting": "metabolite 1_3-Bisphosphoglyceric acid, log2 fold change", "value": 0.0605}, {"measurement": "Log2(fold changes) 2-Hydroxy-2-methylbutanedioic acid", "setting": "metabolite 2-Hydroxy-2-methylbutanedioic acid, log2 fold change", "value": 0.0920}, {"measurement": "Log2(fold changes) 2-Isopropylmalic acid", "setting": "metabolite 2-Isopropylmalic acid, log2 fold change", "value": 0.0000}, {"measurement": "Log2(fold changes) 2-dehydro-D-gluconate", "setting": "metabolite 2-dehydro-D-gluconate, log2 fold change", "value": -0.0605}, {"measurement": "Log2(fold changes) 2-oxo-4-methylthiobutanoate", "setting": "metabolite 2-oxo-4-methylthiobutanoate, log2 fold change", "value": 0.0000}, {"measurement": "Log2(fold changes) 2_3-Diphosphoglyceric acid", "setting": "metabolite 2_3-Diphosphoglyceric acid, log2 fold change", "value": 0.0000}, {"measurement": "Log2(fold changes) 3-phosphoglycerate", "setting": "metabolite 3-phosphoglycerate, log2 fold change", "value": 0.2077}, {"measurement": "Log2(fold changes) 3-phosphoserine", "setting": "metabolite 3-phosphoserine, log2 fold change", "value": -0.0700}, {"measurement": "Log2(fold changes) 4-Pyridoxic acid", "setting": "metabolite 4-Pyridoxic acid, log2 fold change", "value": 0.2073}, {"measurement": "Log2(fold changes) 4-aminobutyrate", "setting": "metabolite 4-aminobutyrate, log2 fold change", "value": 0.0263}, {"measurement": "Log2(fold changes) 4-phosphopantetheine", "setting": "metabolite 4-phosphopantetheine, log2 fold change", "value": 0.0000}, {"measurement": "Log2(fold changes) 4-phosphopantothenate", "setting": "metabolite 4-phosphopantothenate, log2 fold change", "value": -0.0475}, {"measurement": "Log2(fold changes) 5-aminopentanoic acid", "setting": "metabolite 5-aminopentanoic acid, log2 fold change", "value": 0.0000}, {"measurement": "Log2(fold changes) 5-methyl-THF", "setting": "metabolite 5-methyl-THF, log2 fold change", "value": 0.0000}, {"measurement": "Log2(fold changes) 5-phosphoribosyl-1-pyrophosphate", "setting": "metabolite 5-phosphoribosyl-1-pyrophosphate, log2 fold change", "value": 0.0000}, {"measurement": "Log2(fold changes) 6-phospho-D-gluconate", "setting": "metabolite 6-phospho-D-gluconate, log2 fold change", "value": 0.1085}, {"measurement": "Log2(fold changes) ADP-D-glucose", "setting": "metabolite ADP-D-glucose, log2 fold change", "value": 0.0398}, {"measurement": "Log2(fold changes) Acetyl-glycine", "setting": "metabolite Acetyl-glycine, log2 fold change", "value": 0.0000}, {"measurement": "Log2(fold changes) Acetyllysine", "setting": "metabolite Acetyllysine, log2 fold change", "value": -0.1423}, {"measurement": "Log2(fold changes) Aminoadipic acid", "setting": "metabolite Aminoadipic acid, log2 fold change", "value": 0.0000}, {"measurement": "Log2(fold changes) CDP", "setting": "metabolite CDP, log2 fold change", "value": -0.5923}, {"measurement": "Log2(fold changes) CDP-choline", "setting": "metabolite CDP-choline, log2 fold change", "value": -0.0652}, {"measurement": "Log2(fold changes) CDP-ethanolamine", "setting": "metabolite CDP-ethanolamine, log2 fold change", "value": -0.0101}, {"measurement": "Log2(fold change) of CMP", "setting": "metabolite CMP", "value": -0.1194}, {"measurement": "Log2(fold change) of CTP", "setting": "metabolite CTP", "value": 0.1369}, {"measurement": "Log2(fold changes) Citraconic acid", "setting": "metabolite Citraconic acid, log2 fold change", "value": 0.0000}, {"measurement": "Log2(fold change) of D-glucarate", "setting": "metabolite D-glucarate", "value": 0.1211}, {"measurement": "Log2(fold change) of D-gluconate", "setting": "metabolite D-gluconate", "value": 0.1168}, {"measurement": "Log2(fold change) of D-glucosamine-1/6-phosphate", "setting": "metabolite D-glucosamine-1/6-phosphate", "value": 0.0000}, {"measurement": "Log2(fold change) of D-sedoheptulose-1/7-phosphate", "setting": "metabolite D-sedoheptulose-1/7-phosphate", "value": -0.1410}, {"measurement": "Log2(fold change) of DL-Pipecolic Acid", "setting": "metabolite DL-Pipecolic Acid", "value": 0.1435}, {"measurement": "Log2(fold change) of DLH", "setting": "metabolite DLH", "value": 0.3114}, {"measurement": "Log2(fold change) of DLS", "setting": "metabolite DLS", "value": 0.0979}, {"measurement": "Log2(fold change) of Decanoyl-CoA", "setting": "metabolite Decanoyl-CoA", "value": 0.0000}, {"measurement": "Log2(fold change) of EV", "setting": "metabolite EV", "value": -0.1292}, {"measurement": "Log2(fold change) of FAD", "setting": "metabolite FAD", "value": 0.0352}, {"measurement": "Log2(fold change) of FMN", "setting": "metabolite FMN", "value": 0.1758}, {"measurement": "Log2(fold change) of G3P/DHAP", "setting": "metabolite G3P/DHAP", "value": 0.0000}, {"measurement": "Log2(fold change) of GDP", "setting": "metabolite GDP", "value": -0.5345}, {"measurement": "Log2(fold change) GMP", "setting": "metabolite GMP", "value": 0.0470}, {"measurement": "Log2(fold change) GTP", "setting": "metabolite GTP", "value": 0.0942}, {"measurement": "Log2(fold change) HVDD", "setting": "metabolite HVDD", "value": 0.0000}, {"measurement": "Log2(fold change) Hexose", "setting": "metabolite Hexose", "value": 0.0000}, {"measurement": "Log2(fold change) Hydroxyisocaproic acid", "setting": "metabolite Hydroxyisocaproic acid", "value": 0.0000}, {"measurement": "Log2(fold change) IDP", "setting": "metabolite IDP", "value": 0.0737}, {"measurement": "Log2(fold change) IMP", "setting": "metabolite IMP", "value": -0.0394}, {"measurement": "Log2(fold change) Inositol", "setting": "metabolite Inositol", "value": 0.0000}, {"measurement": "Log2(fold change) Isopentyl-PP", "setting": "metabolite Isopentyl-PP", "value": 0.0000}, {"measurement": "Log2(fold change) L-arginino-succinate", "setting": "metabolite L-arginino-succinate", "value": -0.0233}, {"measurement": "Log2(fold change) LD", "setting": "metabolite LD", "value": 0.1467}, {"measurement": "Log2(fold change) Myristoyl/tetradecanoyl-CoA", "setting": "metabolite Myristoyl/tetradecanoyl-CoA", "value": 0.0252}, {"measurement": "Log2(fold change) N-Acetyl-L-alanine", "setting": "metabolite N-Acetyl-L-alanine", "value": 0.1261}, {"measurement": "Log2(fold change) N-acetyl-L-ornithine", "setting": "metabolite N-acetyl-L-ornithine", "value": -0.0214}, {"measurement": "Log2(fold change) N-acetyl-glucosamine-1/6-phosphate", "setting": "metabolite N-acetyl-glucosamine-1/6-phosphate", "value": 0.0000}, {"measurement": "Log2(fold change) N-acetyl-glutamate", "setting": "metabolite N-acetyl-glutamate", "value": 0.0412}, {"measurement": "Log2(fold change) N-acetyl-glutamine", "setting": "metabolite N-acetyl-glutamine", "value": 0.0000}, {"measurement": "Log2(fold change) N-carbamoyl-L-aspartate", "setting": "metabolite N-carbamoyl-L-aspartate", "value": 0.0625}, {"measurement": "Log2(fold change) NAD+", "setting": "metabolite NAD+", "value": -0.0154}, {"measurement": "Log2(fold change) NADH", "setting": "metabolite NADH", "value": 0.0000}, {"measurement": "Log2(fold change) NADP+", "setting": "metabolite NADP+", "value": 0.0692}, {"measurement": "Log2(fold change) NADPH", "setting": "metabolite NADPH", "value": -0.1981}, {"measurement": "Log2(fold change) O-acetyl-L-serine", "setting": "metabolite O-acetyl-L-serine", "value": 0.0000}, {"measurement": "Log2(fold change) Octoluse 8/1P", "setting": "metabolite Octoluse 8/1P", "value": -0.0241}, {"measurement": "Log2(fold change) Octoluse Bisphosphate", "setting": "metabolite Octoluse Bisphosphate", "value": 0.0717}, {"measurement": "Log2(fold change) PD", "setting": "metabolite PD", "value": 0.0223}, {"measurement": "Log2(fold change) PE", "setting": "metabolite PE", "value": 0.1349}, {"measurement": "Log2(fold change) PEE", "setting": "metabolite PEE", "value": 0.2438}, {"measurement": "Log2(fold change) PEEK", "setting": "metabolite PEEK", "value": 0.3424}, {"measurement": "Log2(fold change) PVNF", "setting": "metabolite PVNF", "value": 0.2854}, {"measurement": "Log2(fold change) Pyroglutamic acid", "setting": "metabolite Pyroglutamic acid", "value": -0.2488}, {"measurement": "Log2(fold change) Pyrophosphate", "setting": "metabolite Pyrophosphate", "value": 0.0000}, {"measurement": "Log2(fold change) Ribose-5-phosphate", "setting": "metabolite Ribose-5-phosphate", "value": 0.1278}, {"measurement": "Log2(fold change) S-adenosyl-L-homocysteine", "setting": "metabolite S-adenosyl-L-homocysteine", "value": -0.2617}, {"measurement": "Log2(fold change) S-adenosyl-L-methioninamine", "setting": "metabolite S-adenosyl-L-methioninamine", "value": 0.0000}, {"measurement": "Log2(fold change) S-adenosyl-L-methionine", "setting": "metabolite S-adenosyl-L-methionine", "value": 0.0000}, {"measurement": "Log2(fold change) S-methyl-5'-thioadenosine", "setting": "metabolite S-methyl-5'-thioadenosine", "value": 0.0070}, {"measurement": "Log2(fold change) SD", "setting": "metabolite SD", "value": 0.1296}, {"measurement": "Log2(fold change) SDL", "setting": "metabolite SDL", "value": 0.0391}, {"measurement": "Log2(fold change) SID", "setting": "metabolite SID", "value": 0.2783}, {"measurement": "Log2(fold change) Sedoheptulose bisphosphate", "setting": "metabolite Sedoheptulose bisphosphate", "value": 0.1433}, {"measurement": "Log2(fold change) Thiamine pyrophosphate", "setting": "metabolite Thiamine pyrophosphate", "value": 0.0526}, {"measurement": "Log2(fold changes) UDP-D-glucose", "setting": "metabolite UDP-D-glucose, log2 fold change", "value": 0.0961}, {"measurement": "Log2(fold changes) UDP-D-glucuronate", "setting": "metabolite UDP-D-glucuronate, log2 fold change", "value": 0.1278}, {"measurement": "Log2(fold changes) UDP-N-acetyl-glucosamine", "setting": "metabolite UDP-N-acetyl-glucosamine, log2 fold change", "value": 0.0189}, {"measurement": "Log2(fold changes) UDP", "setting": "metabolite UDP, log2 fold change", "value": -0.6136}, {"measurement": "Log2(fold changes) UMP", "setting": "metabolite UMP, log2 fold change", "value": -0.1186}, {"measurement": "Log2(fold changes) UTP", "setting": "metabolite UTP, log2 fold change", "value": 0.1051}, {"measurement": "Log2(fold changes) VD", "setting": "metabolite VD, log2 fold change", "value": 0.0754}, {"measurement": "Log2(fold changes) Xanthurenic acid", "setting": "metabolite Xanthurenic acid, log2 fold change", "value": 0.0000}, {"measurement": "Log2(fold changes) a-ketoglutarate", "setting": "metabolite a-ketoglutarate, log2 fold change", "value": 0.1610}, {"measurement": "Log2(fold changes) acetyl-CoA", "setting": "metabolite acetyl-CoA, log2 fold change", "value": 0.1670}, {"measurement": "Log2(fold changes) acetyl-aspartate", "setting": "metabolite acetyl-aspartate, log2 fold change", "value": 0.0000}, {"measurement": "Log2(fold changes) acetylphosphate", "setting": "metabolite acetylphosphate, log2 fold change", "value": 0.0000}, {"measurement": "Log2(fold changes) aconitate", "setting": "metabolite aconitate, log2 fold change", "value": 0.1208}, {"measurement": "Log2(fold changes) adenine", "setting": "metabolite adenine, log2 fold change", "value": 0.0000}, {"measurement": "Log2(fold changes) adenosine 5'-phosphosulfate", "setting": "metabolite adenosine 5'-phosphosulfate, log2 fold change", "value": 0.0000}]}]}
